From ChEMBL document CHEMBL1156890, “Semi-synthetic aristolactams--inhibitors of CDK2 enzyme” (Bioorg Med Chem Lett, 2010)
The source made the active and inactive calls. No cut-off for these calls is given here.

Legend:
[1] = target: Cyclin-dependent kinase 1 (Homo sapiens, UniProt P06493); assay: Inhibition of CDC2
[2] = target: Cyclin-dependent kinase 4 (Homo sapiens, UniProt P11802); assay: Inhibition of CDK4
Aurora kinase A = target: T1, Aurora kinase A (Homo sapiens, UniProt O14965); assay: Inhibition of AUR2
T1 sequence (O14965 whole entry): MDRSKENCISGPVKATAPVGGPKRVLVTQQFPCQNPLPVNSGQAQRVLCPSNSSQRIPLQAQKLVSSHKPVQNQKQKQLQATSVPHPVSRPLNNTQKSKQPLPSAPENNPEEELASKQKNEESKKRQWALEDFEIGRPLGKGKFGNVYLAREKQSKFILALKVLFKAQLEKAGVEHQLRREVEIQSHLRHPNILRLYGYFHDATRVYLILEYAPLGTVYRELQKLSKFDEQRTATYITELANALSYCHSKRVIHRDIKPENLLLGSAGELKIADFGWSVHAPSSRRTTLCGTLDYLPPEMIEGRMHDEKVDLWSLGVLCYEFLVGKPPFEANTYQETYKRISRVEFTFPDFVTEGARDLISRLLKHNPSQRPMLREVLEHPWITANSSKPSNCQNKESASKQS

[3] = Inhibition of MAPK
MCF7 [4] = assay: Antiproliferative activity against human MCF7 cells by soft agar growth assay; assay type: functional, cell-based
MCF7 [5] = assay: Antiproliferative activity against human MCF7 cells by clonogenicity assay; assay type: functional, cell-based
[6] = target: T2, Cyclin-dependent kinase 2 (Homo sapiens, UniProt P24941); assay: Inhibition of CDK2
[7] = target: T2, Cyclin-dependent kinase 2; assay: Inhibition of CDK2 at 50 uM

Chain of Cyclin-dependent kinase 1 (P06493 whole entry): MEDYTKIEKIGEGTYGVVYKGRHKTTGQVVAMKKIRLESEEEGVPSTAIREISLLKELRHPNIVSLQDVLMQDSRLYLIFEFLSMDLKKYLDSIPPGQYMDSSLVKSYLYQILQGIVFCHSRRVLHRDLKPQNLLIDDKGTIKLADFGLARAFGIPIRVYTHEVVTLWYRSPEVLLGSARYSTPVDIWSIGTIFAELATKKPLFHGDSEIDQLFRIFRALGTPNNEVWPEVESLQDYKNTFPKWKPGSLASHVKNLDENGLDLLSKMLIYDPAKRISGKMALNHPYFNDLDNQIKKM
Chain of Cyclin-dependent kinase 4 (P11802 whole entry): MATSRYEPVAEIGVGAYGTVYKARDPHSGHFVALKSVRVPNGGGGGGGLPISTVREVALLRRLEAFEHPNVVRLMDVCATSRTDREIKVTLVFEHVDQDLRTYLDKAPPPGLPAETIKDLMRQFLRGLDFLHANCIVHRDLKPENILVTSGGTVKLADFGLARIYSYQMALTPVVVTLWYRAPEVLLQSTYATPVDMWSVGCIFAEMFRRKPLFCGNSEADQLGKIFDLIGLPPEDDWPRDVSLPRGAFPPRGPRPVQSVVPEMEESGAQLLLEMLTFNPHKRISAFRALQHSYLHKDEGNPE

| SMILES | IC50 [6] [µM] | Activity [7] | further results |
| --- | --- | --- | --- |
| COc1c(O)cc2c3c(cc4ccc(O)cc4c13)NC2=O [ARISTOLACTAM AIIIA] |  |  | IC50 [1]: 0.2 µM; IC50 [2]: 2 µM; IC50 (Aurora kinase A): 5 µM; IC50 [3]: > 50 µM; IC50 (MCF7 [4]): > 0.01 µM; IC50 (MCF7 [5]): 3 µM |
| CN1C(=O)c2cc3c(c4c2c1cc1c(O)cccc14)OCO3 | > 35 | inactive |  |
| O=C1Nc2c(Cl)c3ccccc3c3c(O)c(O)cc1c23 | > 25 | inactive |  |
| O=C(O)c1cc(O)c(O)c2c1c([N+](=O)[O-])cc1ccccc12 | 13.4 | inactive |  |
| COc1cccc2c1c(OC)c([N+](=O)[O-])c1c(C(=O)O)cc3c(c12)OCO3 [7-METHOXY ARISTOLOCHIC ACID A] | > 20 | inactive |  |
| COc1cc(O)cc2c1cc([N+](=O)[O-])c1c(C(=O)O)cc3c(c12)OCO3 [ARISTOLOCHIC D] | 25 | inactive |  |
| O=C1Nc2cc3c(O)cccc3c3c(O)c(O)cc1c23 | > 35 | inactive |  |
| COc1c(O)ccc2c1cc([N+](=O)[O-])c1c(C(=O)O)cc3c(c12)OCO3 [7-HYDROXY ARISTOLOCHIC A] | 25 | inactive |  |
| O=C(O)c1cc2c(c3c1c([N+](=O)[O-])cc1c(O)cccc13)OCO2 [ARISTOLOCHIC ACID III] | 15 | inactive |  |
| COc1ccc2c(cc3c4c(cc5c(c42)OCO5)C(=O)N3)c1OC | > 15 | inactive |  |
| O=C1Nc2cc3ccc(O)cc3c3c4c(cc1c23)OCO4 | 2.15 |  |  |
| COc1cc(O)cc2c1cc1c3c(cc4c(c32)OCO4)C(=O)N1 | > 35 | inactive |  |
| COc1cccc2c1cc1c3c(cc(O)c(O)c32)C(=O)N1 | > 35 | inactive |  |
| COc1cccc2c1cc([N+](=O)[O-])c1c(C(=O)O)cc(O)c(O)c12 | > 30 | inactive |  |
| COc1cc2c(cc1OC)-c1c3c(cc4c1[C@H](C2)N(C)CC4)OCO3 [DICENTRINE] | > 50 |  |  |
| COc1cc2c3c(c1O)-c1c(ccc(OC)c1OC)C[C@@H]3N(C)CC2 [CORYDINE] | > 50 |  |  |
| O=C(O)c1cc2c(c3c1c([N+](=O)[O-])cc1ccc(O)cc13)OCO2 [ARISTOLOCHIC ACID C] | 30 | inactive |  |
| COc1cccc2c1cc([N+](=O)[O-])c1c(C(=O)O)cc3c(c12)OCO3 [ARISTOLOCHIC ACID] | > 20 | inactive |  |
| COc1ccc2nc3[nH]nc(C)c3c(OC)c2c1 | 0.02 |  | IC50 [1]: 0.2 µM; IC50 [2]: 2 µM; IC50 (Aurora kinase A): 5 µM; IC50 [3]: > 50 µM; IC50 (MCF7 [4]): 2 µM; IC50 (MCF7 [5]): 3.5 µM |
| COc1ccc2c(c1O)-c1c(O)c(OC)cc3c1[C@H](C2)N(C)CC3 [CORYTUBERINE] | > 50 |  |  |
| CN1CCc2cc3c(c4c2[C@H]1Cc1ccccc1-4)OCO3 [ROEMERINE HBR] | > 50 |  |  |
| COC1=C[C@@H]2[C@@H]3Cc4ccc(OC)c(O)c4[C@]2(CCN3C)CC1=O [SINOMENINE] | > 50 |  |  |

| SMILES | IC50 [6] [µM] | Activity [7] | further results |
| --- | --- | --- | --- |
| O=C1Nc2cc3c(O)cccc3c3c4c(cc1c23)OCO4 | 0.035 | inactive | IC50 [1]: 0.214 µM; IC50 [2]: 1.42 µM; IC50 (Aurora kinase A): 2.14 µM; IC50 [3]: 35.3 µM |
| O=C1Nc2cc3c(O)c(O)ccc3c3c4c(cc1c23)OCO4 | > 30 | inactive |  |
| O=C(O)c1cc2c(c3c1c([N+](=O)[O-])cc1ccccc13)OCO2 [ARISTOLOCHIC ACID II] | > 20 | inactive |  |
| COc1cccc2c1cc1c3c(cc4c(c32)OCO4)C(=O)N1 [ARISTOLACTAM I] | 1.2 |  |  |
| COc1ccc2cc([N+](=O)[O-])c3c(C(=O)O)cc4c(c3c2c1)OCO4 | > 20 | inactive |  |
| COc1c(O)ccc2c1cc1c3c(cc4c(c32)OCO4)C(=O)N1 | 2.9 |  |  |
| O=C1Nc2cc3ccccc3c3c4c(cc1c23)OCO4 [ARISTOLACTAM II] | 15 | inactive |  |
| O=C1Nc2cc3ccccc3c3c(O)c(O)cc1c23 | > 35 | inactive |  |
| O=C1Nc2cc3c(O)cc(O)cc3c3c4c(cc1c23)OCO4 | > 50 | inactive |  |
| COc1ccc2c(c1O)-c1c(OC)c(OC)cc3c1[C@H](C2)N(C)CC3 [ISOCORYDINE] | > 50 |  |  |
| O=C(O)c1cc(O)c(O)c2c1c([N+](=O)[O-])cc1c(O)cccc12 | 5.7 | inactive |  |
| COc1cccc2c1c(Cl)c1c3c(cc(O)c(O)c32)C(=O)N1 | 10 | inactive |  |
| COc1cc(OC)c2cc([N+](=O)[O-])c3c(C(=O)O)cc4c(c3c2c1)OCO4 [ARISTOLOCHIC ACID IV] | > 20 | inactive |  |
| COc1ccc2c(c1OC)CN1CCc3cc4c(cc3C1C2)OCO4 (stereo unspecified) [TETRAHYDROBERBERINE] | > 50 |  |  |
| O=C(O)c1cc(O)c(O)c2c1c([N+](=O)[O-])c(Cl)c1ccccc12 | 18 | inactive |  |
| COC1=C[C@]23CCN(C)[C@H](Cc4ccc(OC)c(O)c42)C3=CC1=O [SALUTARIDINE] | > 50 |  |  |
| COc1cccc2c1c(Cl)c([N+](=O)[O-])c1c(C(=O)O)cc(O)c(O)c12 | 16.5 | inactive |  |
| COc1cc(OC)c2cc3c4c(cc5c(c4c2c1)OCO5)C(=O)N3 | > 15 | inactive |  |
| COc1ccc2c(c1OC)CC1c3c(cc4c(c3-2)OCO4)CCN1C (stereo unspecified) [CREBANINE] | > 50 |  |  |
| COc1cccc2c1cc1c3c(cc4c(c32)OCO4)C(=O)N1C | > 35 | inactive |  |
| COc1cccc2c1C[C@@H]1c3c(cc4c(c3-2)OCO4)CCN1C [STEPHANINE] | > 50 |  |  |
